Laboratory results published in ChEMBL document CHEMBL1159068, “Discovery and SAR of small molecule PAR1 antagonists” (Bioorg Med Chem Lett, 2010).

Key:
Platelet = assay: Inhibition of SFLLR-induced aggregation in human platelets; format: functional
[1] = target: T1, Proteinase-activated receptor 1 (Homo sapiens) (UniProt P25116); assay: Antagonist activity at PAR1 expressed in CHO cells assessed as inhibition of SFLLR-induced intracellular calcium release at 10 uM; format: functional, cell-based
T1 sequence (whole entry): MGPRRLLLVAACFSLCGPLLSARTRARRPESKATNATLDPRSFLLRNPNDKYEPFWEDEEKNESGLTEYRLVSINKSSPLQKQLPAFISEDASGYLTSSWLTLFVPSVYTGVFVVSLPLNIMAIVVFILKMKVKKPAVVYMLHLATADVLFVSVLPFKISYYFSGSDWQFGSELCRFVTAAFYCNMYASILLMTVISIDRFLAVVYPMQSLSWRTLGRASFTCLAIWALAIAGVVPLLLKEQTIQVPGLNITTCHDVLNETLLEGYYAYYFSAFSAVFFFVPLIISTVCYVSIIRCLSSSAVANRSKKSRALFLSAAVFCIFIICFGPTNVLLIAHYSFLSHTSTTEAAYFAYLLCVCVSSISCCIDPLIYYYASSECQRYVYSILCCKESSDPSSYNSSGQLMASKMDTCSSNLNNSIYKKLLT

[2] = Metabolic stability in rat liver microsomes assessed as parent compound remaining after 60 mins; format: ADME, Microsome; conditions: read-out: Stability
[3] = Metabolic stability in human liver microsomes assessed as parent compound remaining after 60 mins; format: ADME, Microsome; conditions: read-out: Stability
[4] = target: T1, Proteinase-activated receptor 1 (Homo sapiens); assay: Antagonist activity at PAR1 expressed in CHO cells assessed as inhibition of SFLLR-induced intracellular calcium release; format: functional, cell-based
Rattus norvegicus = assay: Antithrombotic activity in rat arterio-venous shunt model of thrombosis assessed as increase in occlusion time at 1.25 mg/kg, iv; format: functional

Row | Structure (SMILES) | pKb (Platelet) | inhibition [1] [%] | remaining at 1 h [2] [%] | remaining at 1 h [3] [%] | pKb [4] | Activity (Rattus norvegicus) [%]
1 | COC(c1ccc(Cl)cc1)C(SC(C)(C)C)n1cnc(C)c1 (stereo not drawn) | 4.42 | 96 |  |  |  | 
2 | CCOC(c1ccc2sccc2c1)C(SC(C)(C)C)n1ccnc1 (stereo not drawn) | 5.2 | 98 |  |  |  | 
3 | CCCOC(c1ccc(Cl)cc1)C(SC(C)(C)C)n1cnc(C)c1 (stereo not drawn) | 5.71 | 99 | 0 | 28 | 5.51 | 45
4 | CCCOC(c1ccc(Cl)c(Cl)c1)C(OC(C)(C)C)n1ccnc1 (stereo not drawn) | 5.04 | 93 |  |  |  | 
5 | CCOC(c1ccc(Cl)cc1)C(SC(C)(C)C)n1cncc1Cl (stereo not drawn) |  | 59 |  |  |  | 
6 | COC(c1ccc(Cl)cc1)C(SC(C)(C)C)n1ccnc1 (stereo not drawn) | 5.24 | 95 |  |  |  | 
7 | CCCCOC(c1ccc(Cl)cc1)C(SC(C)(C)C)n1ccnc1 (stereo not drawn) |  | 33 |  |  |  | 
8 | CCOC(c1ccccc1Cl)C(SC(C)(C)C)n1cnc(C)c1 (stereo not drawn) | 5.21 | 100 |  |  |  | 
9 | CCCOC(c1ccc(Cl)c(Cl)c1)C(OC(C)(C)C)n1cnc(C)c1 (stereo not drawn) | 5.73 | 81 | 3 | 23 |  | 43
10 | CCOC(c1ccc(Br)cc1)C(SC(C)(C)C)n1ccnc1 (stereo not drawn) | 5.06 | 100 |  |  |  | 
11 | CCOC(c1ccc(Cl)cc1)C(n1ccnc1)S(=O)(=O)C(C)(C)C (stereo not drawn) |  | 13 | 47 | 35 |  | 
12 | CCOC(c1ccc(C(F)(F)F)cc1)C(SC(C)(C)C)n1ccnc1 (stereo not drawn) | 5.38 | 100 |  |  |  | 
13 | CCOC(c1ccc(Cl)cc1)C(SC(C)(C)C)n1cnc(C)c1 (stereo not drawn) | 5.36 | 92 |  |  |  | 
14 | CCOC(c1ccc(Cl)cc1)C(SC(C)(C)C)n1ccnc1 (stereo not drawn) | 5.05 | 99 |  |  |  | 
15 | CCOC(c1cccc(Cl)c1)C(SC(C)(C)C)n1cnc(C)c1 (stereo not drawn) | 4.96 | 100 |  |  |  | 
16 | CCOC(c1ccc(Cl)cc1)C(SC(C)(C)C)n1cnnc1 (stereo not drawn) |  | 34 |  |  |  | 
17 | CCOC(c1ccc(C(F)(F)F)cc1)C(OC(C)(C)C)n1cnc(C)c1 (stereo not drawn) | 5.2 | 98 |  |  |  | 
18 | CCOC(c1ccc(Cl)cc1)C(SC(C)(C)C)n1cncn1 (stereo not drawn) | 4.64 | 99 |  |  |  | 
19 | CC(C)(C)SC(C(OCc1ccccc1)c1ccc(Cl)cc1)n1ccnc1 (stereo not drawn) |  | 23 |  |  |  | 
20 | CCOC(c1ccc(Cl)cc1)C(SC(C)C)n1ccnc1 (stereo not drawn) |  | 40 |  |  |  | 
21 | CCOC(c1ccc(C(=O)OC)cc1)C(SC(C)(C)C)n1ccnc1 (stereo not drawn) |  | 37 |  |  |  | 
22 | CCOC(c1ccc(Cl)cc1)C(n1ccnc1)[S+]([O-])C(C)(C)C (stereo not drawn) |  | 15 | 39 | 59 |  | 
23 | CCOC(c1ccc(Br)cc1)C(SC(C)(C)C)n1cnc(C)c1 (stereo not drawn) | 5.73 | 100 |  |  |  | 

Row | Structure (SMILES) | pKb (Platelet) | inhibition [1] [%] | remaining at 1 h [2] [%] | remaining at 1 h [3] [%] | pKb [4] | Activity (Rattus norvegicus) [%]
24 | CCOC(c1ccc(Cl)cc1)C(SC(C)(C)C)n1ccnc1C (stereo not drawn) |  | 63 |  |  |  | 
25 | CCCOC(c1ccccc1Cl)C(SC(C)(C)C)n1cnc(C)c1 (stereo not drawn) | 5.14 | 97 |  |  |  | 
26 | CCOC(c1ccc(Cl)cc1Cl)C(SC(C)(C)C)n1cnc(C)c1 (stereo not drawn) | 5.84 | 93 |  |  |  | 
27 | CCOC(c1ccc(Cl)cc1Cl)C(OC(C)(C)C)n1cnc(C)c1 (stereo not drawn) | 5.32 | 98 | 3 | 57 |  | 0
28 | CCOC(c1ccc(Cl)cc1)C(SC(C)(C)C)n1cnc(Cl)c1 (stereo not drawn) | 4.6 | 96 |  |  |  | 
29 | CCOC(c1ccc(Cl)cc1)C(SC(C)(C)C)n1cccn1 (stereo not drawn) |  | 0 |  |  |  | 
30 | CCOC(c1cccc(OC)c1)C(SC(C)(C)C)n1ccnc1 (stereo not drawn) | 0 | 76 |  |  |  | 
31 | CCOC(c1ccc(Cl)cc1)C(SC(C)(C)C)n1cnc(C)c1C (stereo not drawn) |  | 64 |  |  |  | 
32 | CCOC(c1ccccc1[N+](=O)[O-])C(SC(C)(C)C)n1ccnc1 (stereo not drawn) |  | 33 |  |  |  | 
33 | CCCCCSC(C(OCC)c1ccc(Cl)cc1)n1ccnc1 (stereo not drawn) |  | 19 |  |  |  | 
34 | CCOC(c1ccccc1)C(SC(C)(C)C)n1ccnc1 (stereo not drawn) | 4.46 | 92 |  |  |  | 
35 | CCOC(c1ccc(Cl)cc1)C(SC1CCCCC1)n1ccnc1 (stereo not drawn) |  | 3 |  |  |  | 
36 | CCCOC(c1ccc(F)cc1)C(OC(C)(C)C)n1ccnc1 (stereo not drawn) |  | 18 |  |  |  | 
37 | CCCOC(c1ccc(Cl)cc1Cl)C(SC(C)(C)C)n1cnc(C)c1 (stereo not drawn) | 5.95 | 88 | 2 | 28 |  | 7
38 | CCCOC(c1ccc(Cl)cc1)C(SC(C)(C)C)n1ccnc1 (stereo not drawn) | 5.01 | 96 |  |  |  | 
39 | CCOC(c1ccc2c(c1)OCCO2)C(SC(C)(C)C)n1ccnc1 (stereo not drawn) | 4.79 | 88 |  |  |  | 
40 | CCCOC(c1ccc(Br)cc1)C(SC(C)(C)C)n1cnc(C)c1 (stereo not drawn) | 5.99 | 76 | 0 | 23 |  | 0
41 | CCCCSC(C(OCC)c1ccc(Cl)cc1)n1ccnc1 (stereo not drawn) | 4.58 | 76 |  |  |  | 
42 | CCOC(c1ccc(Cl)cc1)C(SC(C)(C)C)n1cnc(C(F)(F)F)c1 (stereo not drawn) |  | 20 |  |  |  | 
43 | CCOC(c1ccc(Cl)cc1)C(OC(C)(C)C)n1ccnc1 (stereo not drawn) | 4.54 | 85 | 25 | 74 |  | 0
44 | CC(C)(C)SC(C(O)c1ccc(Cl)cc1)n1ccnc1 (stereo not drawn) |  | 11 |  |  |  | 
45 | CCOC(c1ccc(Cl)cc1)C(CC(C)(C)C)n1ccnc1 (stereo not drawn) | 4.12 | 74 | 3 | 57 |  | 
